{
  "source": "patent US10111874B2",
  "about": "“Combination therapies for treatment of cancer” (Araxes Pharma LLC, priority 2014, dated 2018)",
  "data": [
    {"target": "T1, KRAS G12C 1-169, his-tagged protein, GDP-loaded (Homo sapiens, UniProt P01116, G12C)", "T1 construct": "KRAS G12C 1-169, his-tagged protein, GDP-loaded", "T1 sequence (P01116 1-169 isoform P01116-2 G12C)": "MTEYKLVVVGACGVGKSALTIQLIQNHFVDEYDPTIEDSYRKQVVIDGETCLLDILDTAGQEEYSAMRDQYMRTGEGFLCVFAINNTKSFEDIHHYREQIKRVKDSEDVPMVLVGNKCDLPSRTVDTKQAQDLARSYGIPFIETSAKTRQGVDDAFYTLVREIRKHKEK", "assay": "Biochemical assay: covalent binding to KRAS G12C analyzed by mass spectrometry; also: test concentration or dose not given here", "conditions": "compounds 1-47, measured at 24 h", "values": [
      {"smiles": "C=CC(=O)N1CCN(c2nccc3cc(Cl)c(-c4ccc(Cl)cc4)cc23)CC1", "note": "[Compound I-37, 1-(4-(6-chloro-7-(4-chlorophenyl)isoquinolin-1-yl)piperazin-1-yl)prop-2-en-1-one]", "Binding %": "++ (++indicates binding activity greater than 25% and up to 50%)"},
      {"smiles": "CN(C)C/C=C/C(=O)N1CCN(c2ncnc3cc(Cl)c(-c4ccccc4Cl)cc23)CC1", "note": "[Compound I-25, (E)-1-(4-(7-chloro-6-(2-chlorophenyl)quinazolin-4-yl)piperazin-1-yl)-4-(dimethylamino)but-2-en-1-one]", "Binding %": "++ (++indicates binding activity greater than 25% and up to 50%)"},
      {"smiles": "C=CC(=O)N1CCN(c2ncnc3cc(Cl)c(-c4ccc(Cl)cc4Cl)cc23)CC1", "note": "[Compound I-6, 1-(4-(7-chloro-6-(2,4-dichlorophenyl)quinazolin-4-yl)piperazin-1-yl)prop-2-en-1-one]", "Binding %": "+++ (+++indicates binding activity greater than 50% and up to 75%)"},
      {"smiles": "C=CC(=O)N1CCC(Nc2ncnc3cc(Cl)c(-c4ccccc4Cl)cc23)CC1", "note": "[Compound I-2, 1-(4-(7-chloro-6-(2-chlorophenyl)quinazolin-4-ylamino)piperidin-1-yl)prop-2-en-1-one]", "Binding %": "+ (+indicates binding activity from 5% to 25%)"},
      {"smiles": "C=CC(=O)N1CC(N2CCN(C(=O)CNc3cc(Cl)c(Cl)cc3O)CC2)C1", "note": "[Example 38, 1-(3-(4-(2-(4,5-dichloro-2-hydroxyphenylamino)acetyl)piperazin-1-yl)azetidin-1-yl)prop-2-en-1-one]", "Binding %": "++ (++indicates binding activity greater than 25% and up to 50%)"}
    ]},
    {"target": "T1, KRAS G12C 1-169, his-tagged protein, GDP-loaded", "assay": "Biochemical assay: covalent binding to KRAS G12C analyzed by mass spectrometry", "conditions": "compounds 48-246, measured at 2 h", "values": [
      {"smiles": "N#C/C(=C\\c1cncs1)C(=O)N1CCN(c2ncnc3cc(-c4ccccc4F)c(Cl)cc23)CC1", "note": "[Compound I-245, (E)-2-(4-(6-chloro-7-(2-fluorophenyl)quinazolin-4-yl)piperazine-1-carbonyl)-3-(thiazol-5-yl)acrylonitrile]", "Binding %": "+ (+indicates binding activity from 5% to 25%)"},
      {"smiles": "C=CC(=O)N1CCN(c2ncnc3cc(-c4ccccc4COC)c(Cl)cc23)CC1", "note": "[Compound I-103, 1-(4-(6-chloro-7-(2-(methoxymethyl)phenyl)quinazolin-4-yl)piperazin-1-yl)prop-2-en-1-one]", "Binding %": "++ (++indicates binding activity greater than 25% and up to 50%)"},
      {"smiles": "C=CC(=O)N1CCN(c2ncnc3cc(-c4cccc5onc(N)c45)c(Cl)cc23)CC1", "note": "[Compound I-149, 1-(4-(7-(3-aminobenzo[d]isoxazol-4-yl)-6-chloroquinazolin-4-yl)piperazin-1-yl)prop-2-en-1-one]", "Binding %": "+ (+indicates binding activity from 5% to 25%)"},
      {"smiles": "C=CC(=O)N1CCN(c2ncnc3cc(-c4ccccc4)c(Cl)cc23)CC1CO", "note": "(stereo not shown) [Compound I-116, 1-(4-(6-chloro-7-phenylquinazolin-4-yl)-2-(hydroxymethyl)piperazin-1-yl)prop-2-en-1-one]", "Binding %": "++ (++indicates binding activity greater than 25% and up to 50%)"},
      {"smiles": "C=CC(=O)N1CCN(c2ncnc3cc(-c4ccccc4F)c(C#N)cc23)CC1", "note": "[Compound I-137, 4-(4-acryloylpiperazin-1-yl)-7-(2-fluorophenyl)quinazoline-6-carbonitrile]", "Binding %": "+ (+indicates binding activity from 5% to 25%)"},
      {"smiles": "C=CC(=O)N1CCN(c2ncnc3cc(-c4ccc(Cl)cc4Cl)c(Cl)cc23)CC1", "note": "[Compound I-102, 1-(4-(6-chloro-7-(2,4-dichlorophenyl)quinazolin-4-yl)piperazin-1-yl)prop-2-en-1-one]", "Binding %": "+++ (+++indicates binding activity greater than 50% and up to 75%)"},
      {"smiles": "C=CC(=O)N1CCN(c2ncnc3cc(-c4ccccc4C(N)=O)c(Cl)cc23)CC1", "note": "[Compound I-98, 2-(4-(4-acryloylpiperazin-1-yl)-6-chloroquinazolin-7-yl)benzamide]", "Binding %": "+ (+indicates binding activity from 5% to 25%)"},
      {"smiles": "C=CC(=O)N1CCN(c2ncnc3cc(-c4c(OC)ccc5ccccc45)c(Cl)cc23)CC1", "note": "[Compound I-202, 1-(4-(6-chloro-7-(2-methoxynaphthalen-1-yl)quinazolin-4-yl)piperazin-1-yl)prop-2-en-1-one]", "Binding %": "+++ (+++indicates binding activity greater than 50% and up to 75%)"},
      {"smiles": "C=CC(=O)N1CCN(c2ncnc3cc(-c4c(F)ccc(F)c4O)c(Cl)cc23)CC1", "note": "[Compound I-216, 1-(4-(6-chloro-7-(3,6-difluoro-2-hydroxyphenyl)quinazolin-4-yl)piperazin-1-yl)prop-2-en-1-one]", "Binding %": "+ (+indicates binding activity from 5% to 25%)"},
      {"smiles": "C=CC(=O)N1CCN(c2ncnc3cc(-c4ccc(F)cc4F)c(Cl)cc23)CC1", "note": "[Compound I-112, 1-(4-(6-chloro-7-(2,4-difluorophenyl)quinazolin-4-yl)piperazin-1-yl)prop-2-en-1-one]", "Binding %": "+++ (+++indicates binding activity greater than 50% and up to 75%)"},
      {"smiles": "C=CC(=O)N1CCN(c2ncnc3cc(Cl)c(-c4ccc(Cl)cc4)cc23)CC1CCO", "note": "(stereo not shown) [Compound I-62, 1-(4-(7-chloro-6-(4-chlorophenyl)quinazolin-4-yl)-2-(2-hydroxyethyl)piperazin-1-yl)prop-2-en-1-one]", "Binding %": "+ (+indicates binding activity from 5% to 25%)"},
      {"smiles": "C=CC(=O)N1CCN(c2c(C#N)cnc3cc(-c4ccccc4O)c(Cl)cc23)CC1", "note": "[Compound I-182, 4-(4-acryloylpiperazin-1-yl)-6-chloro-7-(2-hydroxyphenyl)quinoline-3-carbonitrile]", "Binding %": "+++ (+++indicates binding activity greater than 50% and up to 75%)"},
      {"smiles": "C=CC(=O)N1CCN(c2ncnc3cc(-c4cccc(Cl)c4)c(Cl)cc23)CC1", "note": "[Compound I-73, 1-(4-(6-chloro-7-(3-chlorophenyl)quinazolin-4-yl)piperazin-1-yl)prop-2-en-1-one]", "Binding %": "++ (++indicates binding activity greater than 25% and up to 50%)"}
    ]},
    {"target": "T1, KRAS G12C 1-169, his-tagged protein, GDP-loaded", "assay": "Biochemical assay: covalent binding to KRAS G12C analyzed by mass spectrometry", "conditions": "compounds 247-342, measured at 30 min", "values": [
      {"smiles": "C=CC(=O)N1CCN(c2nc(OC3CCOC3)nc3cc(-c4c(C)ccc5[nH]ncc45)c(Cl)cc23)CC1", "note": "(stereo not shown) [Compound 300, 1-(4-(6-chloro-7-(5-methyl-1H-indazol-4-yl)-2-(tetrahydrofuran-3-yloxy)quinazolin-4-yl)piperazin-1-yl)prop-2-en-1-one]", "Binding %": "++ (++indicates binding activity greater than 25% and up to 50%)"},
      {"smiles": "C=CC(=O)N1CCN(c2ncnc3c(F)c(-c4c(C)ccc5[nH]ncc45)c(Cl)cc23)CC1CC#N", "note": "(stereo not shown) [Compound I-294]", "Binding %": "++++ (++++indicates binding activity greater than 75%)"},
      {"smiles": "C=CC(=O)N1CCN(c2ncnc3c(F)c(-c4c(C)cccc4Cl)c(Cl)cc23)CC1", "note": "[Compound I-290, 1-(4-(6-chloro-7-(2-chloro-6-methylphenyl)-8-fluoroquinazolin-4-yl)piperazin-1-yl)prop-2-en-1-one]", "Binding %": "+++ (+++indicates binding activity greater than 50% and up to 75%)"},
      {"smiles": "C=CC(=O)N1CCN(c2nc(-c3cncs3)nc3c(F)c(-c4c(C)ccc5[nH]ncc45)c(Cl)cc23)CC1", "note": "[Compound 332, 1-(4-(6-chloro-8-fluoro-7-(5-methyl-1H-indazol-4-yl)-2-(thiazol-5-yl)quinazolin-4-yl)piperazin-1-yl)prop-2-en-1-one]", "Binding %": "++ (++indicates binding activity greater than 25% and up to 50%)"},
      {"smiles": "C=CC(=O)N1CCN(c2ncnc3c(F)c(-c4ccccc4C(C)(C)O)c(Cl)cc23)CC1", "note": "[Compound I-278, 1-(4-(6-chloro-8-fluoro-7-(2-(2-hydroxypropan-2-yl)phenyl)quinazolin-4-yl)piperazin-1-yl)prop-2-en-1-one]", "Binding %": "++ (++indicates binding activity greater than 25% and up to 50%)"},
      {"smiles": "C=CC(=O)N1CCN(c2ncnc3cc(-c4cccc(-c5ccn[nH]5)c4)c(Cl)cc23)CC1", "note": "[Compound I-276, 1-(4-(7-(3-(1H-pyrazol-5-yl)phenyl)-6-chloroquinazolin-4-yl)piperazin-1-yl)prop-2-en-1-one]", "Binding %": "+ (+indicates binding activity from 5% to 25%)"},
      {"smiles": "CN(C)C/C=C/C(=O)N1CCN(c2ncnc3c(F)c(-c4c(O)cccc4F)c(Cl)cc23)CC1", "note": "[Compound 301, (E)-1-(4-(6-chloro-8-fluoro-7-(2-fluoro-6-hydroxyphenyl)quinazolin-4-yl)piperazin-1-yl)-4-(dimethylamino)but-2-en-1-one]", "Binding %": "++ (++indicates binding activity greater than 25% and up to 50%)"}
    ]},
    {"target": "T1, KRAS G12C 1-169, his-tagged protein, GDP-loaded", "assay": "Biochemical assay: covalent binding to KRAS G12C analyzed by mass spectrometry", "conditions": "determined at 2 hrs", "values": [
      {"smiles": "C=CC(=O)N1CC(N2CCN(C(=O)CNc3cc(C(C)C)c(Cl)cc3O)CC2)C1", "note": "[II-50, 1-(3-(4-(2-(4-Chloro-2-hydroxy-5-isopropylphenylamino)acetyl)piperazin-1-yl)azetidin-1-yl)prop-2-en-1-one]", "Binding %": "++ (++indicates binding activity greater than 20%)"},
      {"smiles": "C=CC(=O)N1CC(N2CCN(C(=O)CNc3cc(C4(C)CC4)c(Cl)cc3O)CC2)C1", "note": "[II-64, 1-(3-(4-(2-((4-Chloro-2-hydroxy-5-(1-methylcyclopropyl)phenyl)amino)acetyl)piperazin-1-yl)azetidin-1-yl)prop-2-en-1-one]", "Binding %": "++ (++indicates binding activity greater than 20%)"}
    ]},
    {"target": "T1, KRAS G12C 1-169, his-tagged protein, GDP-loaded", "assay": "Biochemical assay: covalent binding to KRAS G12C analyzed by mass spectrometry", "conditions": "determined at 24 hrs", "values": [
      {"smiles": "C=CC(=O)N1CCC(N2CCN(C(=O)CNc3cc(Cl)c(Cl)cc3O)CC2)C1", "note": "(stereo not shown) [II-2, 1-(3-(4-(2-(4,5-dichloro-2-hydroxyphenyl-amino)acetyl)piperazin-1-yl)pyrrolidin-1-yl)prop-2-en-1-one]", "Binding %": "+++ (+++indicates binding activity greater than 25% and up to 50%)"},
      {"smiles": "C=CC(=O)N1CC(N2CCN(C(=O)Cn3ccc4cc(Cl)c(Cl)cc43)CC2)C1", "note": "[II-30, 1-(3-(4-(2-(5,6-dichloro-1H-indol-1-yl)acetyl)piperazin-1-yl)azetidin-1-yl)prop-2-en-1-one]", "Binding %": "+ (+indicates binding activity from 5% to 15%)"},
      {"smiles": "C=CC(=O)N1CC(N2CCN(C(=O)c3cc(-c4cc(Cl)ccc4Cl)c(Cl)cc3OC)CC2)C1", "note": "[II-13, 1-(3-(4-(2′,5′,6-trichloro-4-methoxybiphenyl-carbonyl)piperazin-1-yl)azetidin-1-yl)prop-2-en-1-one]", "Binding %": "++ (++indicates binding activity greater than 15% and up to 25%)"},
      {"smiles": "C=CC(=O)N1CC(N2CCN(C(=O)CNc3cc(Cl)c(Cl)cc3C(N)=O)CC2)C1", "note": "[II-10, 2-(2-(4-(1-acryloylazetidin-3-yl)piperazin-1-yl)-2-oxoethylamino)-4,5-dichlorobenzamide]", "Binding %": "+ (+indicates binding activity from 5% to 15%)"}
    ]}
  ]
}
